Laboratory results reported in patent US4199504A (priority 1978, dated 1980).

What was measured:
[1] = system: Gardner lymphosarcoma (GLS); test: Gardner lymphosarcoma (GLS) transplanted in mice, tumor inhibition or prolongation of survival; assay type: in vivo
Procedure: (§1) The compounds of this invention and those preparable by the process disclosed herein are active against transplanted tumors in mice in vivo.
(§2) The following table--Table 1--gives the results of experiments in which mice bearing transplanted Gardner lymphosarcoma (GLS), C3 H mammary tumor, B16 melanoma, P 1534(J) leukemia, P388 leukemia or 755 adenocarcinoma were treated with a compound of this invention. In the table, column 1 gives the name of the compound; column 2, the tumor system employed; column 3, the dosage schedule and column 4, the percent inhibition of tumor growth or increased life span.

P388 leukemia = P388 leukemia transplanted in mice, tumor inhibition or prolongation of survival; assay type: in vivo
Procedure: as §1, §2

755 adenocarcinoma = 755 adenocarcinoma transplanted in mice, tumor inhibition or prolongation of survival; assay type: in vivo
Procedure: as §1, §2

P 1534(J) leukemia = P 1534(J) leukemia transplanted in mice, tumor inhibition or prolongation of survival; assay type: in vivo; details: P1534(J)
Procedure: as §1, §2

C3 H mammary tumor = test: C3H mammary tumor transplanted in mice, tumor inhibition or prolongation of survival; assay type: in vivo
Procedure: as §1, §2

B16 melanoma = B16 melanoma transplanted in mice, tumor inhibition or prolongation of survival; assay type: in vivo
Procedure: as §1, §2

leukemias = details: clinical trial in humans; cited from earlier work

CCC1(O)CC2CN(CCc3c([nH]c4ccccc34)C(C(=O)OC)(c3cc4c(cc3OC)N(C)C3C(O)(C(=O)NCCCCNC(=O)C5(O)C(O)C6(CC)C=CCN7CCC8(c9cc(C%10(C(=O)OC)CC%11CN(CCc%12c%10[nH]c%10ccccc%12%10)CC(O)(CC)C%11)c(OC)cc9N(C)C58)C76)C(O)C5(CC)C=CCN6CCC43C65)C2)C1 (stereo not drawn) [1,4-bis(4-Desacetyl VLB C-3 carboxamido)butane disulfate]
Percent Inhibition or Prolongation of Survival Time ([1]; 0.4 mg./kg. × 9): 40%

CCC1(O)CC2CN(CCc3c([nH]c4ccccc34)C(C(=O)OC)(c3cc4c(cc3OC)N(C)C3C(O)(C(=O)NCCOCCNC(=O)C5(O)C(O)C6(CC)C=CCN7CCC8(c9cc(C%10(C(=O)OC)CC%11CN(CCc%12c%10[nH]c%10ccccc%12%10)CC(O)(CC)C%11)c(OC)cc9N(C)C58)C76)C(O)C5(CC)C=CCN6CCC43C65)C2)C1 (stereo not drawn) [bis[β -(4-Desacetyl VLB C-3 carboxamido)ethyl]ether disulfate]
Percent Inhibition or Prolongation of Survival Time (P388 leukemia; P388, 0.6 mg./kg. × 3): 53% | Percent Inhibition or Prolongation of Survival Time (P388 leukemia; P388, 0.9 mg./kg. × 3): 77% | Percent Inhibition or Prolongation of Survival Time (P388 leukemia; P388, 1.2 mg./kg. × 3): 85% | Toxic (Percent Inhibition or Prolongation of Survival Time) (P388 leukemia; P388, 1.8 mg./kg. × 3): Toxic | Percent Inhibition or Prolongation of Survival Time ([1]; 0.4 mg./kg. × 9): 62%

CCC1(O)CC2CN(CCc3c([nH]c4ccccc34)C(C(=O)OC)(c3cc4c(cc3OC)N(C)C3C(O)(C(=O)NCC[Se][Se]CCNC(=O)C5(O)C(O)C6(CC)C=CCN7CCC8(c9cc(C%10(C(=O)OC)CC%11CN(CCc%12c%10[nH]c%10ccccc%12%10)CC(O)(CC)C%11)c(OC)cc9N(C)C58)C76)C(O)C5(CC)C=CCN6CCC43C65)C2)C1 (stereo not drawn) [bis[β-(4-Desacetyl VLB C-3 carboxamido)ethyl]diselenide disulfate]
Percent Inhibition or Prolongation of Survival Time (755 adenocarcinoma; 755, 0.6 mg./kg. × 3): 26-32% | Percent Inhibition or Prolongation of Survival Time (755 adenocarcinoma; 755, 0.9 mg./kg. × 3): 21-62% | Percent Inhibition or Prolongation of Survival Time (755 adenocarcinoma; 755, 1.2 mg./kg. × 3): 31-42% | Percent Inhibition or Prolongation of Survival Time (755 adenocarcinoma; 755, 1.8 mg./kg. × 3): 89% | Percent Inhibition or Prolongation of Survival Time (P 1534(J) leukemia; 1.2 mg./kg. × 3): 21% | Percent Inhibition or Prolongation of Survival Time (P 1534(J) leukemia; 1.8 mg./kg. × 3): 66% | Percent Inhibition or Prolongation of Survival Time (C3 H mammary tumor; 1.5 mg./kg. × 3): 56% | Percent Inhibition or Prolongation of Survival Time (C3 H mammary tumor; 2.0 mg./kg. × 3): 72% | Toxic (Percent Inhibition or Prolongation of Survival Time) (C3 H mammary tumor; 2.5 mg./kg. × 3): Toxic | Percent Inhibition or Prolongation of Survival Time ([1]; 1.5 mg./kg. × 3): 29% | Percent Inhibition or Prolongation of Survival Time ([1]; 2.0 mg./kg. × 3): 57% | Percent Inhibition or Prolongation of Survival Time ([1]; 2.5 mg./kg. × 3): 72%

CCC1(O)CC2CN(CCc3c([nH]c4ccccc34)C(C(=O)OC)(c3cc4c(cc3OC)N(C)C3C(O)(C(=O)NCCSSCCNC(=O)C5(O)C(O)C6(CC)C=CCN7CCC8(c9cc(C%10(C(=O)OC)CC%11CN(CCc%12c%10[nH]c%10ccccc%12%10)CC(O)(CC)C%11)c(OC)cc9N(C)C58)C76)C(O)C5(CC)C=CCN6CCC43C65)C2)C1 (stereo not drawn) [bis[β-(4-Desacetyl VLB C-3 carboxamido)ethyl]disulfide disulfate]
Percent Inhibition or Prolongation of Survival Time (P388 leukemia; P388, 0.6 mg./kg. × 3): 33-44% | Percent Inhibition or Prolongation of Survival Time (P388 leukemia; P388, 0.9 mg./kg. × 3): 39-47% | Percent Inhibition or Prolongation of Survival Time (P388 leukemia; P388, 1.2 mg./kg. × 3): 53-61% | Percent Inhibition or Prolongation of Survival Time (755 adenocarcinoma; 755, 0.6 mg./kg. × 3): 29-34% | Percent Inhibition or Prolongation of Survival Time (755 adenocarcinoma; 755, 0.9 mg./kg. × 3): 34-54% | Percent Inhibition or Prolongation of Survival Time (755 adenocarcinoma; 755, 1.6 mg./kg. × 3): 60% | Percent Inhibition or Prolongation of Survival Time (P 1534(J) leukemia; 0.6 mg./kg. × 3): 20-39% | Percent Inhibition or Prolongation of Survival Time (P 1534(J) leukemia; 0.9 mg./kg. × 3): 50-53% | Percent Inhibition or Prolongation of Survival Time (P 1534(J) leukemia; 1.2 mg./kg. × 3): 62% | Toxic (Percent Inhibition or Prolongation of Survival Time) (P 1534(J) leukemia; 1.2 mg./kg. × 3): Toxic | Percent Inhibition or Prolongation of Survival Time (P 1534(J) leukemia; 1.6 mg./kg. × 3): 90-99% | Percent Inhibition or Prolongation of Survival Time (C3 H mammary tumor; 0.9 mg./kg. × 3): 31-36% | Toxic (Percent Inhibition or Prolongation of Survival Time) (C3 H mammary tumor; 1.2 mg./kg. × 3): Toxic | Percent Inhibition or Prolongation of Survival Time ([1]; 0.4 mg./kg. × 9): 43-100% | Percent Inhibition or Prolongation of Survival Time ([1]; 0.9 mg./kg. × 3): 34-46% | Percent Inhibition or Prolongation of Survival Time ([1]; 1.2 mg./kg. × 3): 62-93% | Percent Inhibition or Prolongation of Survival Time (B16 melanoma; B16, 0.6 mg./kg. × 3): 118% | number of indefinite survivors (B16 melanoma; B16, 0.6 mg./kg. × 3): 7 | Percent Inhibition or Prolongation of Survival Time (B16 melanoma; B16, 0.9 mg./kg. × 3): 86% | number of indefinite survivors (B16 melanoma; B16, 0.9 mg./kg. × 3): 7 | Percent Inhibition or Prolongation of Survival Time (B16 melanoma; B16, 1.2 mg./kg. × 3): 24% | number of indefinite survivors (B16 melanoma; B16, 1.2 mg./kg. × 3): 3

CC[C@]1(O)C[C@@H]2CN(CCc3c([nH]c4ccccc34)[C@@](C(=O)OC)(c3cc4c(cc3OC)N(C)[C@H]3[C@@](O)(C(N)=O)[C@H](O)[C@]5(CC)C=CCN6CC[C@]43[C@@H]65)C2)C1 [vindesine, 4-desacetyl VLB C-3 carboxamide]
effectiveness against leukemias (leukemias): effective against leukemias including vincristine-resistant leukemias | neurotoxicity compared with vincristine (leukemias): less neurotoxicity than does vincristine
